Data: patent US7432397B2, “Imaging compounds” (Hammersmith Imanet Ltd., priority 2002, dated 2008)
Marks after values point to notes of the source that are not given here.

Assay: Biodistribution of radioactivity in rat tissues after intravenous injection
Assay type: in vivo
Conditions: for Radioactivity in Cerebellum / Radioactivity in Entorhinal cortex / Radioactivity in Fat / Radioactivity in Heart (ventricle) / Radioactivity in Hippocampus / Radioactivity in Hypothalamus / Radioactivity in Inferior collicull / Radioactivity in Kidney / Radioactivity in Large intestine / Radioactivity in Lge. intestine content / Radioactivity in Liver / Radioactivity in Lung / Radioactivity in Medulla with Pons / Radioactivity in Olfactory bulbs / Radioactivity in Olfactory tubercles / Radioactivity in Prefrontal cortex / Radioactivity in Skeletal muscle / Radioactivity in Skin / Radioactivity in Sm. intestine content / Radioactivity in Small intestine / Radioactivity in Somatosensory cortex / Radioactivity in Spleen / Radioactivity in Stomach / Radioactivity in Striata / Radioactivity in Superior collicull / Radioactivity in Testis / Radioactivity in Thalamus / Radioactivity in Visual cortex / Radioactivity in Plasma / Radioactivity in Whole blood / Radioactivity in Urine: i.v.; for Radioactivity in Plasma / Radioactivity in Whole blood: composite curve of 9 rats
Protocol: Sixteen adult male Sprague-Dawley rats (body weight 250-320 g: mean±SD=288±25 g) were used in 5 separate experiments. Each rat was injected with ˜13 MBq Compound 1, at a specific activity of […], via a previously catheterised tail vein. The associated stable compound was 0.5±0.2 nmol/kg. Discrete samples of arterial blood were collected from 9 of the rats via a previously catheterised tail artery.
Tissues were sampled post-mortem using an established protocol, as described in Hirani et al, Synapse 42:164-176 (2001). The radioactivity concentration data obtained at 12 times up to 90 min after radioligand injection were normalised for both amount injected and body weight, giving:—‘uptake units’=(cpm/g tissue)/(injected cpm/g body weight).

CSc1cccc(N([11CH3])C(=N)Nc2cc(SC)ccc2Cl)c1 [Compound 1, (N-(2-chloro-5-(methylthio)phenyl)-N′-(3-methylthio)phenyl)-N′-[N-methyl-^11C]-methylguanidine]
extraction of radioactivity into the brain (following intravenous injection): high extraction | Radioactivity in Cerebellum (1 min): 2.21 Uptake Units | Radioactivity in Entorhinal cortex (1 min): 1.92 Uptake Units | Radioactivity in Fat (1 min): 0.15 Uptake Units | Radioactivity in Heart (ventricle) (1 min): 10.4 Uptake Units | Radioactivity in Hippocampus (1 min): 1.61 Uptake Units | Radioactivity in Hypothalamus (1 min): 2.31 Uptake Units | Radioactivity in Inferior collicull (1 min): 3.42 Uptake Units | Radioactivity in Kidney (1 min): 12.5 Uptake Units | Radioactivity in Large intestine (1 min): 2.71 Uptake Units | Radioactivity in Lge. intestine content (1 min): 0.11 Uptake Units | Radioactivity in Liver (1 min): 2.48 Uptake Units | Radioactivity in Lung (1 min): 56.4 Uptake Units | Radioactivity in Medulla with Pons (1 min): 2.18 Uptake Units | Radioactivity in Olfactory bulbs (1 min): 2.34 Uptake Units | Radioactivity in Olfactory tubercles (1 min): 2.49 Uptake Units | Radioactivity in Prefrontal cortex (1 min): 2.52 Uptake Units | Radioactivity in Skeletal muscle (1 min): 1.07 Uptake Units | Radioactivity in Skin (1 min): 0.47 Uptake Units | Radioactivity in Sm. intestine content (1 min): 4.96 Uptake Units | Radioactivity in Small intestine (1 min): 3.38 Uptake Units | Radioactivity in Somatosensory cortex (1 min): 2.22 Uptake Units | Radioactivity in Spleen (1 min): 3.04 Uptake Units | Radioactivity in Stomach (1 min): 1.60 Uptake Units | Radioactivity in Striata (1 min): 2.13 Uptake Units | Radioactivity in Superior collicull (1 min): 2.42 Uptake Units | Radioactivity in Testis (1 min): 0.50 Uptake Units | Radioactivity in Thalamus (1 min): 2.59 Uptake Units | Radioactivity in Visual cortex (1 min): 2.46 Uptake Units | Radioactivity in Plasma (1 min): 0.51 Uptake Units | Radioactivity in Whole blood (1 min): 0.59 Uptake Units | Radioactivity in Cerebellum (2 min): 2.47 Uptake Units | Radioactivity in Entorhinal cortex (2 min): 2.13 Uptake Units | Radioactivity in Fat (2 min): 0.18 Uptake Units | Radioactivity in Heart (ventricle) (2 min): 8.20 Uptake Units | Radioactivity in Hippocampus (2 min): 1.73 Uptake Units | Radioactivity in Hypothalamus (2 min): 2.29 Uptake Units | Radioactivity in Inferior collicull (2 min): 3.65 Uptake Units | Radioactivity in Kidney (2 min): 10.8 Uptake Units | Radioactivity in Large intestine (2 min): 3.11 Uptake Units | Radioactivity in Lge. intestine content (2 min): 0.21 Uptake Units | Radioactivity in Liver (2 min): 1.65 Uptake Units | Radioactivity in Lung (2 min): 44.5 Uptake Units | Radioactivity in Medulla with Pons (2 min): 2.35 Uptake Units | Radioactivity in Olfactory bulbs (2 min): 2.50 Uptake Units | Radioactivity in Olfactory tubercles (2 min): 2.56 Uptake Units | Radioactivity in Prefrontal cortex (2 min): 2.73 Uptake Units | Radioactivity in Skeletal muscle (2 min): 1.14 Uptake Units | Radioactivity in Skin (2 min): 0.54 Uptake Units | Radioactivity in Sm. intestine content (2 min): 5.62 Uptake Units | Radioactivity in Small intestine (2 min): 3.87 Uptake Units | Radioactivity in Somatosensory cortex (2 min): 2.56 Uptake Units | Radioactivity in Spleen (2 min): 2.65 Uptake Units | Radioactivity in Stomach (2 min): 1.49 Uptake Units | Radioactivity in Striata (2 min): 2.33 Uptake Units | Radioactivity in Superior collicull (2 min): 2.64 Uptake Units | Radioactivity in Testis (2 min): 0.51 Uptake Units | Radioactivity in Thalamus (2 min): 2.41 Uptake Units | Radioactivity in Visual cortex (2 min): 2.71 Uptake Units | Radioactivity in Plasma (2 min): 0.37 Uptake Units | Radioactivity in Whole blood (2 min): 0.42 Uptake Units | Radioactivity in Cerebellum (5 min): 2.43 Uptake Units | Radioactivity in Entorhinal cortex (5 min): 2.16 Uptake Units | Radioactivity in Fat (5 min): 0.23 Uptake Units | Radioactivity in Heart (ventricle) (5 min): 4.27 Uptake Units | Radioactivity in Hippocampus (5 min): 2.00 Uptake Units | Radioactivity in Hypothalamus (5 min): 2.28 Uptake Units | Radioactivity in Inferior collicull (5 min): 3.23 Uptake Units | Radioactivity in Kidney (5 min): 8.70 Uptake Units | Radioactivity in Large intestine (5 min): 2.73 Uptake Units | Radioactivity in Lge. intestine content (5 min): 0.13 Uptake Units | Radioactivity in Liver (5 min): 2.95 Uptake Units | Radioactivity in Lung (5 min): 38.7 Uptake Units | Radioactivity in Medulla with Pons (5 min): 2.34 Uptake Units | Radioactivity in Olfactory bulbs (5 min): 2.18 Uptake Units | Radioactivity in Olfactory tubercles (5 min): 2.42 Uptake Units | Radioactivity in Prefrontal cortex (5 min): 2.67 Uptake Units | Radioactivity in Skeletal muscle (5 min): 1.32 Uptake Units | Radioactivity in Skin (5 min): 0.61 Uptake Units | Radioactivity in Sm. intestine content (5 min): 6.84 Uptake Units | Radioactivity in Small intestine (5 min): 3.17 Uptake Units | Radioactivity in Somatosensory cortex (5 min): 2.69 Uptake Units | Radioactivity in Spleen (5 min): 3.85 Uptake Units | Radioactivity in Stomach (5 min): 1.26 Uptake Units | Radioactivity in Striata (5 min): 2.35 Uptake Units | Radioactivity in Superior collicull (5 min): 2.59 Uptake Units | Radioactivity in Testis (5 min): 0.56 Uptake Units | Radioactivity in Thalamus (5 min): 2.59 Uptake Units | Radioactivity in Urine (5 min): 11.7 Uptake Units | Radioactivity in Visual cortex (5 min): 3.05 Uptake Units | Radioactivity in Plasma (5 min): 0.24 Uptake Units | Radioactivity in Whole blood (5 min): 0.26 Uptake Units | Radioactivity in Cerebellum (10 min): 2.08 Uptake Units | Radioactivity in Entorhinal cortex (10 min): 2.04 Uptake Units | Radioactivity in Fat (10 min): 0.50 Uptake Units | Radioactivity in Heart (ventricle) (10 min): 2.20 Uptake Units | Radioactivity in Hippocampus (10 min): 1.81 Uptake Units | Radioactivity in Hypothalamus (10 min): 2.13 Uptake Units | Radioactivity in Inferior collicull (10 min): 2.69 Uptake Units | Radioactivity in Kidney (10 min): 5.72 Uptake Units | Radioactivity in Large intestine (10 min): 1.92 Uptake Units | Radioactivity in Lge. intestine content (10 min): 0.17 Uptake Units | Radioactivity in Liver (10 min): 4.38 Uptake Units | Radioactivity in Lung (10 min): 35.3 Uptake Units | Radioactivity in Medulla with Pons (10 min): 2.26 Uptake Units | Radioactivity in Olfactory bulbs (10 min): 1.91 Uptake Units | Radioactivity in Olfactory tubercles (10 min): 2.14 Uptake Units | Radioactivity in Prefrontal cortex (10 min): 2.52 Uptake Units | Radioactivity in Skeletal muscle (10 min): 1.05 Uptake Units | Radioactivity in Skin (10 min): 0.70 Uptake Units | Radioactivity in Sm. intestine content (10 min): 5.31 Uptake Units | Radioactivity in Small intestine (10 min): 2.49 Uptake Units | Radioactivity in Somatosensory cortex (10 min): 2.49 Uptake Units | Radioactivity in Spleen (10 min): 4.31 Uptake Units | Radioactivity in Stomach (10 min): 0.82 Uptake Units | Radioactivity in Striata (10 min): 2.17 Uptake Units | Radioactivity in Superior collicull (10 min): 2.35 Uptake Units | Radioactivity in Testis (10 min): 0.66 Uptake Units | Radioactivity in Thalamus (10 min): 2.39 Uptake Units | Radioactivity in Urine (10 min): 10.9 Uptake Units | Radioactivity in Visual cortex (10 min): 2.80 Uptake Units | Radioactivity in Plasma (10 min): 0.19 Uptake Units | Radioactivity in Whole blood (10 min): 0.21 Uptake Units | Radioactivity in Cerebellum (15 min): 1.81 Uptake Units | Radioactivity in Entorhinal cortex (15 min): 1.93 Uptake Units | Radioactivity in Fat (15 min): 0.75 Uptake Units | Radioactivity in Heart (ventricle) (15 min): 1.63 Uptake Units | Radioactivity in Hippocampus (15 min): 1.74 Uptake Units | Radioactivity in Hypothalamus (15 min): 1.85 Uptake Units | Radioactivity in Inferior collicull (15 min): 2.22 Uptake Units | Radioactivity in Kidney (15 min): 4.78 Uptake Units | Radioactivity in Large intestine (15 min): 1.65 Uptake Units | Radioactivity in Lge. intestine content (15 min): 0.03 Uptake Units | Radioactivity in Liver (15 min): 6.87 Uptake Units | Radioactivity in Lung (15 min): 10.7 Uptake Units | Radioactivity in Medulla with Pons (15 min): 1.92 Uptake Units | Radioactivity in Olfactory bulbs (15 min): 1.72 Uptake Units | Radioactivity in Olfactory tubercles (15 min): 1.92 Uptake Units | Radioactivity in Prefrontal cortex (15 min): 2.32 Uptake Units | Radioactivity in Skeletal muscle (15 min): 1.07 Uptake Units | Radioactivity in Skin (15 min): 0.51 Uptake Units | Radioactivity in Sm. intestine content (15 min): 9.63 Uptake Units | Radioactivity in Small intestine (15 min): 2.79 Uptake Units | Radioactivity in Somatosensory cortex (15 min): 2.24 Uptake Units | Radioactivity in Spleen (15 min): 4.46 Uptake Units | Radioactivity in Stomach (15 min): 2.07 Uptake Units | Radioactivity in Striata (15 min): 1.92 Uptake Units | Radioactivity in Superior collicull (15 min): 2.01 Uptake Units | Radioactivity in Testis (15 min): 0.66 Uptake Units | Radioactivity in Thalamus (15 min): 2.21 Uptake Units | Radioactivity in Urine (15 min): 22.0 Uptake Units | Radioactivity in Visual cortex (15 min): 2.28 Uptake Units | Radioactivity in Plasma (15 min): 0.17 Uptake Units | Radioactivity in Whole blood (15 min): 0.19 Uptake Units | Radioactivity in Cerebellum (20 min): 1.45* Uptake Units | Radioactivity in Entorhinal cortex (20 min): 1.80 Uptake Units | Radioactivity in Fat (20 min): 0.40* Uptake Units | Radioactivity in Heart (ventricle) (20 min): 1.10* Uptake Units | Radioactivity in Hippocampus (20 min): 1.60 Uptake Units | Radioactivity in Hypothalamus (20 min): 1.67 Uptake Units | Radioactivity in Inferior collicull (20 min): 1.97 Uptake Units | Radioactivity in Kidney (20 min): 3.19* Uptake Units | Radioactivity in Large intestine (20 min): 1.27* Uptake Units | Radioactivity in Lge. intestine content (20 min): 0.28* Uptake Units | Radioactivity in Liver (20 min): 6.47* Uptake Units | Radioactivity in Lung (20 min): 14.0* Uptake Units | Radioactivity in Medulla with Pons (20 min): 1.68 Uptake Units | Radioactivity in Olfactory bulbs (20 min): 1.46 Uptake Units | Radioactivity in Olfactory tubercles (20 min): 1.73 Uptake Units | Radioactivity in Prefrontal cortex (20 min): 1.94* Uptake Units | Radioactivity in Skeletal muscle (20 min): 0.96* Uptake Units | Radioactivity in Skin (20 min): 0.68* Uptake Units | Radioactivity in Sm. intestine content (20 min): 6.08* Uptake Units | Radioactivity in Small intestine (20 min): 2.16* Uptake Units | Radioactivity in Somatosensory cortex (20 min): 2.03 Uptake Units | Radioactivity in Spleen (20 min): 3.26* Uptake Units | Radioactivity in Stomach (20 min): 0.67* Uptake Units | Radioactivity in Striata (20 min): 1.65* Uptake Units | Radioactivity in Superior collicull (20 min): 1.64 Uptake Units | Radioactivity in Testis (20 min): 0.73* Uptake Units | Radioactivity in Thalamus (20 min): 2.01 Uptake Units | Radioactivity in Urine (20 min): 10.7* Uptake Units | Radioactivity in Visual cortex (20 min): 2.07 Uptake Units | Radioactivity in Plasma (20 min): 0.17 Uptake Units | Radioactivity in Whole blood (20 min): 0.18 Uptake Units | Radioactivity in Cerebellum (30 min): 0.55 Uptake Units
